pKd: −log10 of the molar value.
Columns and labels:
[1] = system: intersegmental vessel (ISV) angiogenesis of zebrafish embryos; test: ISV angiogenesis in fli1a:EGFP transgenic zebrafish embryos; type: in vivo; settings: 30 hpf
Procedure: (§1) Zebrafish were maintained on 14 hours light/dark cycle at 28° C. All experiments involving zebrafish were performed according to the National Institute of Health guidelines. Embryos were collected and raised in Ringer's solution according to standard protocol (Westerfield, 1995). Zebrafish were injected in Ringer's solution at the one-cell stage with morpholino oligonucleotides (MO). MO was obtained from Gene Tools (Philomath, Oreg.) with the following sequence to block 5′ translation of NUP153: 5′-[…]-3′ (SEQ ID NO:2) and splicing of NUP153: 5′-[…]-3′ (SEQ ID NO:3), respectively. DMSO and OMe-Syn stock solution (10 mM in DMSO) were dissolved in ringer's solution to appropriate concentrations. […] Embryos were added to the solutions at one cell stage. Tricaine supplied in Ringer's solution (0.6%, w/v) was used to anesthetize the embryos for imaging. Microscopy images of zebrafish were taken with Fluoview FV1000, Olympus.
(§2) The present inventors previously reported that OMe-Syn, an anti-angiogenic small molecule, inhibited VEGF-induced angiogenesis in vitro and in vivo (Kim et al., Biochem. Biophys. Res. Commun 399, 20-23 (2010)). The anti-angiogenic activity of OMe-Syn was further investigated using fli1a:EGFP transgenic zebrafish, a well-established model organism for studying angiogenesis through visualization of blood vessel development.
The present inventors further examined the function of NUP153 in vivo in intersegmental vessel (ISV) angiogenesis of zebrafish embryos using a morpholino oligonucleotide (MO) specific to NUP153. NUP153-specific MOs that block the splicing (n=31) or translation (n=28) of NUP153 were injected into fli1a:EGFP transgenic embryos at the one-cell stage. The blocking of NUP153 splicing was monitored by reverse transcription-polymerase chain reaction (RT-PCR) (FIG. 6A).

NUP153-expressing phage = molecular target: T1, NUP153-expressing phage (Homo sapiens, UniProt P49790); test: Phage binding and phage competition assay
T1 construct: host or cells: T7 phage clone isolated from human cDNA libraries (colon tumor, lung tumor, heart)
T1 sequence (P49790 245-326): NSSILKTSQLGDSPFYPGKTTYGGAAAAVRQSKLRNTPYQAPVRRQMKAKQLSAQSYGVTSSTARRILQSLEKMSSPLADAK

[2] = system: vascular endothelial growth factor (VEGF)-induced angiogenesis; settings: in vitro and in vivo; Kim et al., 2010; cited from earlier work
NPC = test: Preliminary investigation of NPC integrity under OMe-Syn treatment
VEGF mRNA = VEGF mRNA level in treated zebrafish embryos by RT-PCR; type: in vivo; settings: compared with DMSO-treated controls
Procedure: as §1, §2

[3] = system: retinal neovascularization; test: Oxygen-induced retinopathy (OIR), counting vascular lumens; type: in vivo, C57BL/6 mice; settings: mice, 20 μM in 1 μL PBS intravitreously on P14, read at P17, compared to control group
Description: OIR was induced as described by Smith et al. (Smith et al., Invest. Ophthalmol. Vis. Sci 35, 101-111 (1994)) with some modifications (Zhang et al., Diabetologia 44, 757-765 (2001)). Briefly, newborn mice were arbitrarily assigned to experimental and control groups. At postnatal day 7 (P7), pups (8-10 pups) in the experimental group were exposed to hyperoxia (75±0.5% 02) for 5 days (P7-P12) and then returned to normoxia (room air) for 6 days. Neovascularization occurs upon return to normoxia and peaks at P17. To assess the anti-angiogenic activity of OMe-Syn, the pups were injected intravitreously with 20 μM OMe-Syn in 1 μL PBS on P14, when maximum retinal neovascularization began.
At P17, the eyes were removed, fixed in 4% paraformaldehyde in 0.1 M phosphate buffer for 24 hours, and embedded in paraffin. Sagittal sections of 5 μm, each 30 μm apart, were cut through the cornea parallel to the optic nerve. The sections were stained with hematoxylin and eosin to assess retinal vasculature via light microscopy (Carl Zeiss, Chester, Va., USA). Any vascular lumens on the vitreal side of the inner limiting membrane were counted in at least 10 sections from each eye by two independent observers blind to treatment. The average intravitreal vessels/section was calculated for each group. There were at least six animals in each group.

[4] = molecular target: T2, purified N-terminal partial domain of NUP153 (Homo sapiens, UniProt P49790); test: Surface plasmon resonance (SPR) analysis, BIAcore 2000; type: binding
T2 construct: a PCR-amplified N-terminus (amino acids 235-326) cDNA of NUP153 (NM_005124); inferred from the pET-28a vector and Ni-NTA purification; made in house; host or cells: Rosetta (DE3) E. coli
T2 sequence (P49790 235-326): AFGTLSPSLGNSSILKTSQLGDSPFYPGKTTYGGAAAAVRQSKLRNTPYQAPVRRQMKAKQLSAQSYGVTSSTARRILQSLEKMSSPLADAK
Description: To obtain the recombinant NUP153 protein from bacteria, a PCR-amplified N-terminus (amino acids 235-326) cDNA of NUP153 (NM_005124) was into the EcoRI/SalI site of pET-28a expression vector (Novagen, Billerica, Mass.). Rosetta™ (DE3) E. coli strains were transformed with the plasmid and N-terminus partial domain of NUP153 protein was purified using Ni-NTA agarose bead (Quiagen, Hilden, Germany). Bead bound protein was eluted with elution buffer containing high concentration of imidazole according to the manufacturer's instructions.
Biotin and biotinylated OMe-Syn were sequentially immobilized on the surface of a streptavidin-coated sensor chip. Molecular interaction analysis was performed using the BIAcore 2000 (BIAcore AB) as described previously (Shim et al., Chem. Biol 11, 1455-1463 (2004)). The SPR response curves were analyzed with BIAcore Evaluations software, version 3.1. The apparent association and dissociation constants were calculated from the kinetic constants equations: KA=ka/kd, KD=kd/ka
To examine the binding affinity of OMe-Syn to NUP153, the N-terminal partial domain of NUP153, which corresponds to phage coding sequences (FIG. 2E), was cloned and expressed in Escherichia coli. The cloning and purification of recombinant NUP153 is described in the experimental procedures. […]

CNC[C@H](OC)c1ccc(O)cc1 [OMe-Syn, R-(−)-β-O-Methylsynephrine]
viability / toxicity of embryos [1]: without compromising the viability | number of complete intersegmental vessels (ISVs) and angiogenic sprouts ([1]; OMe-Syn 2.5 and 5 μM, 5′-MO 8 ng, sp-MO 12 ng): decreased number of complete intersegmental vessels (ISVs) in a dose-dependent manner | binding of NUP153-expressing phage to immobilized compound (NUP153-expressing phage; phage binding assay, versus biotin): specifically bound to OMe-Syn | phage competition: binding of phage to immobilized OMe-Syn after pre-incubation (NUP153-expressing phage; pre-incubation with OMe-Syn 50, 100 μM for 1 hour): blocked the binding of the phage to immobilized OMe-Syn in a dose-dependent manner | inhibition of VEGF-induced angiogenesis [2]: inhibit vascular endothelial growth factor (VEGF)-induced angiogenesis in vitro and in vivo | NPC integrity and NPC protein interactions (NPC): leaves the NPC intact and does not disrupt NPC protein interactions | VEGF mRNA level (VEGF mRNA): reduced | number of vascular lumens (retinal neovascularization) [3]: effectively reduced number of vascular lumens | pKd [4]: 8.62 | SPR binding of purified NUP153 to immobilized compound ([4]; compound immobilized on sensor chip, purified NUP153 20 μM): specifically bound
